Molecular target: Growth hormone secretagogue receptor type 1 (Rattus norvegicus) (UniProt O08725)
Test: Ability to release growth hormone in a rat pituitary cell assay

Sequence of Growth hormone secretagogue receptor type 1 (Rattus norvegicus) (O08725 whole entry, looked up): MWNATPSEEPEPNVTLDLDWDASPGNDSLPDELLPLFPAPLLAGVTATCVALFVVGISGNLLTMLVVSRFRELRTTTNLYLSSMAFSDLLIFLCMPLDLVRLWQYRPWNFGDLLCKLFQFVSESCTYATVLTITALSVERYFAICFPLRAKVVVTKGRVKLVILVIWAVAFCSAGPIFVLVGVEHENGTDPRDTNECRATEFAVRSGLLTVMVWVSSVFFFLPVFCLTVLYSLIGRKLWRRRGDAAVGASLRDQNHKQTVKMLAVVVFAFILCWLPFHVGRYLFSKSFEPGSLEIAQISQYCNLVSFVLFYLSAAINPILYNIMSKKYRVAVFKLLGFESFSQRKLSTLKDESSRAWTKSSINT

SMILES	EC50
CC(C)(N)C(=O)N[C@H](CCCc1ccccc1)C(=O)N1CCC2(CC1)C[C@H](CC(=O)O)c1ccccc12	2.3 nM
CCOC(=O)[C@@H]1CC2(CCN(C(=O)[C@@H](COCc3ccccc3)NC(=O)C(C)(C)N)CC2)c2ccccc21	6.6 nM
CCOC(=O)CCC1CC2(CCN(C(=O)[C@@H](CCCc3ccccc3)NC(=O)C(C)(C)N)CC2)c2ccccc21 (stereo partly drawn)	1.3 nM
CC(C)(N)C(=O)N[C@H](CCCc1ccccc1)C(=O)N1CCC2(CC1)C[C@@H](C(=O)O)c1ccccc12	2.5 nM
CCOC(=O)[C@@H]1CC2(CCN(C(=O)[C@@H](CCCc3ccccc3)NC(=O)C(C)(C)N)CC2)c2ccccc21	2 nM
CCOC(=O)[C@H]1CC2(CCN(C(=O)[C@@H](CCCc3ccccc3)NC(=O)C(C)(C)N)CC2)c2ccccc21	1 nM
CC(C)(N)C(=O)N[C@H](COCc1ccccc1)C(=O)N1CCC2(CCc3ccccc32)CC1	17 nM
CC(C)(N)C(=O)N[C@H](Cc1c[nH]c2ccccc12)C(=O)N1CCC2(CC1)C[C@@H](CC(=O)O)c1ccccc12	5.8 nM
CCOC(=O)C[C@@H]1CC2(CCN(C(=O)[C@@H](Cc3c[nH]c4ccccc34)NC(=O)C(C)(C)N)CC2)c2ccccc21	7 nM
CCOC(=O)[C@H]1CC2(CCN(C(=O)[C@@H](Cc3c[nH]c4ccccc34)NC(=O)C(C)(C)N)CC2)c2ccccc21	6 nM
CCOC(=O)[C@@H]1CC2(CCN(C(=O)[C@@H](Cc3c[nH]c4ccccc34)NC(=O)C(C)(C)N)CC2)c2ccccc21	8.3 nM
CCOC(=O)C[C@H]1CC2(CCN(C(=O)[C@@H](CCCc3ccccc3)NC(=O)C(C)(C)N)CC2)c2ccccc21	1 nM
CC(C)(N)C(=O)N[C@H](Cc1c[nH]c2ccccc12)C(=O)N1CCC2(CCc3ccccc32)CC1 [L-162752]	14 nM

The remaining molecules from weak to strong by EC50, led by results:

EC50	SMILES
60 nM	CC(C)(N)CC(=O)N[C@@H]1CCc2ccccc2N(Cc2ccc(-c3ccccc3-c3nnn[nH]3)cc2)C1=O [3-Amino-3-methyl-N-{2-oxo-1-[2'-(1H-tetrazol-5-yl)-biphenyl-4-ylmethyl]-2,3,4,5-tetrahydro-1H-benzo[b]azepin-3-yl}-butyramide]
28 nM	CCOC(=O)C[C@H]1CC2(CCN(C(=O)[C@@H](Cc3c[nH]c4ccccc34)NC(=O)C(C)(C)N)CC2)c2ccccc21
10 nM	CC(C)(N)C(=O)N[C@@H](CCCc1ccccc1)C(=O)N1CCC2(CCc3ccccc32)CC1
4.4 nM	CC(C)(N)C(=O)N[C@H](COCc1ccccc1)C(=O)N1CCC2(CC1)C[C@H](C(=O)O)c1ccccc12
3 nM	C[C@@H](O)CNC(C)(C)CC(=O)N[C@@H]1CCc2ccccc2N(Cc2ccc(-c3ccccc3-c3nnn[nH]3)cc2)C1=O [L-692585]
2.9 nM	CCOC(=O)[C@H]1CC2(CCN(C(=O)[C@@H](COCc3ccccc3)NC(=O)C(C)(C)N)CC2)c2ccccc21
2.5 nM	CC(C)(N)C(=O)N[C@H](CCCc1ccccc1)C(=O)N1CCC2(CC1)CC(CCC(=O)O)c1ccccc12 (stereo partly drawn)
2.1 nM	CC(C)(N)C(=O)N[C@H](CCCc1ccccc1)C(=O)N1CCC2(CC1)C[C@H](C(=O)O)c1ccccc12
1.9 nM	CC(C)(N)C(=O)N[C@H](CCCc1ccccc1)C(=O)N1CCC2(CC1)C[C@@H](CC(=O)O)c1ccccc12
0.8 nM	CCOC(=O)C[C@@H]1CC2(CCN(C(=O)[C@@H](CCCc3ccccc3)NC(=O)C(C)(C)N)CC2)c2ccccc21
